Some test systems named below: 786-0; CCRF-CEM; DLD-1; HCT-116; HL-60; HOP-62; HT-29; LOX IMVI; NCI-H460; OVCAR-4; SN12C; SNB-19; SR; TK-10; UACC-257; Hs-578T; MDA-MB-231; MDA-N; NCI/ADR-RES; PC-3.
Holding throughout (experiment): growth of human tumour cells (NCI), 48 h

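1) Cells in 96-well plates. 2) Compound, 48 h, 5 concentrations. 3) Linear interpolation between surrounding doses. 4) Unreached endpoint = highest concentration. GI50: concentration for 50% inhibition of growth.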 Calls of active or inactive are those of the source. No stated cut-off is given here; in the data, active = GI50 up to about 1.1 µM and inactive = higher. Where only a bound is given, the exact number is not on record here.

Regarding `S=c1sc2sc(=S)sc2s1`, the GI50 in the assay on 786-0 is 68.4 µM (inactive); in the assay with CCRF-CEM, 6.08 µM (inactive); with DLD-1 it was 37.1 µM (inactive); in the assay on HCT-116, 30.1 µM (inactive); in the assay with HL-60, 5.92 µM (inactive); in the assay with HOP-62 it was > 100 µM (inactive). The GI50 in the assay with HT-29 is 29.6 µM (inactive); in the assay on LOX IMVI, 33.5 µM (inactive); in the assay on NCI-H460, 22.4 µM (inactive); in the assay on OVCAR-4 it was > 100 µM (inactive); in the assay on SN12C, 96.8 µM (inactive); with SNB-19, > 100 µM (inactive). Further, the GI50 in the assay with SR was 29.1 µM (inactive); in the assay on TK-10 it was > 100 µM (inactive); in the assay on UACC-257, > 100 µM (inactive).
`Cc1cc2c(=O)c(C)n[nH]c2c(C#N)c1C`: the GI50 in the assay on 786-0, in the assay with CCRF-CEM, in the assay with DLD-1, with HCT-116, in the assay on HL-60 and with HOP-62 was > 100 µM (inactive) throughout. The GI50 with HT-29, in the assay with LOX IMVI, with NCI-H460, in the assay on SN12C, in the assay on SNB-19 and in the assay on SR was > 100 µM (inactive) in each case. In addition, the GI50 in the assay with TK-10 and with UACC-257 was > 100 µM (inactive) each time.
As to `C/C(=N\NC(=S)N1CCC1)c1ccccn1`, the GI50 with 786-0 is < 0.0239 µM (active); with CCRF-CEM, 0.01 µM (active); in the assay with DLD-1 it was 0.01 µM (active); in the assay on HCT-116, 0.01 µM (active); in the assay with HL-60 it was 0.01 µM (active); in the assay with HOP-62, 0.0181 µM (active). Further, the GI50 is 0.01 µM (active) in the assay on HT-29; 4.06 µM (inactive) in the assay on Hs-578T; < 0.0119 µM (active) in the assay with LOX IMVI; 0.0155 µM (active) with MDA-MB-231; 0.0682 µM (active) in the assay with MDA-N; < 0.0184 µM (active) in the assay on NCI-H460. For the same compound, the GI50 with NCI/ADR-RES is 0.00332 µM (active); in the assay on PC-3 it was 0.0512 µM (active); in the assay with SNB-19, 0.261 µM (active); in the assay on SR, 0.01 µM (active); with TK-10, 1.29 µM (inactive); with UACC-257 it was < 0.0229 µM (active).
`C=C1CN2CCc3c([nH]c4ccccc34)C2CC1CC(=O)N(C)C` (stereo unspecified): the GI50 in the assay on 786-0, with CCRF-CEM, in the assay on DLD-1, with HCT-116, with HL-60 and in the assay with HOP-62 was > 309 µM (inactive) in each case. For the same compound, the GI50 in the assay with HT-29, in the assay on LOX IMVI, with NCI-H460, in the assay with SN12C, in the assay with SNB-19 and with SR was > 309 µM (inactive) each time. Besides, the GI50 in the assay with TK-10 and with UACC-257 was > 309 µM (inactive) throughout.
For the compound `COC(=O)CC(NC(=O)OCc1ccccc1)C(C(C)=O)C(=O)OCc1ccccc1` (stereo unspecified), the GI50 in the assay on 786-0 was > 31.6 µM (inactive); in the assay on CCRF-CEM it was > 31.6 µM (inactive); with DLD-1, > 31.6 µM (inactive); with HCT-116 it was > 31.6 µM (inactive); in the assay with HL-60, > 31.6 µM (inactive); with HOP-62, > 10 µM (inactive). Moreover, the GI50 is > 10 µM (inactive) in the assay with HT-29; > 100 µM (inactive) in the assay with LOX IMVI; > 31.6 µM (inactive) with NCI-H460; > 10 µM (inactive) in the assay on OVCAR-4; > 31.6 µM (inactive) in the assay with SN12C; > 10 µM (inactive) in the assay on SNB-19. For the same compound, the GI50 is > 100 µM (inactive) in the assay on SR, > 31.6 µM (inactive) in the assay on TK-10 and > 31.6 µM (inactive) in the assay on UACC-257.
For the compound `CN(C)CC1CCC(CN(C)C)C1=O` (stereo unspecified), the GI50 was 1.93 µM (inactive) with 786-0; 2.05 µM (inactive) with DLD-1; 2.27 µM (inactive) in the assay with HCT-116; 0.294 µM (active) with HL-60; > 52.5 µM (inactive) in the assay with HOP-62; 6.64 µM (inactive) in the assay with HT-29. For the same compound, the GI50 is 3.06 µM (inactive) with Hs-578T; 4.54 µM (inactive) in the assay with LOX IMVI; 2.07 µM (inactive) with MDA-MB-231; 2.01 µM (inactive) in the assay on MDA-N; 20.8 µM (inactive) with NCI-H460; 23 µM (inactive) with NCI/ADR-RES. Also, the GI50 in the assay on OVCAR-4 was 5.32 µM (inactive); in the assay on PC-3 it was 1.98 µM (inactive); in the assay with SN12C, 6.89 µM (inactive); with SNB-19, > 100 µM (inactive); in the assay with SR, 2.6 µM (inactive); with TK-10, 14.7 µM (inactive). Besides, the GI50 in the assay with UACC-257 is 8.34 µM (inactive).
As to `CCCCCCCCCCCCCC1CCC(CC)N1` (stereo unspecified), the GI50 in the assay with 786-0 was 17.5 µM (inactive); in the assay on CCRF-CEM, 5.2 µM (inactive); in the assay with DLD-1 it was 14.9 µM (inactive); in the assay with HCT-116, 15.6 µM (inactive); in the assay with HL-60, 5.14 µM (inactive); with HOP-62 it was 7.1 µM (inactive). The GI50 was 5.81 µM (inactive) in the assay on HT-29; 17.5 µM (inactive) with LOX IMVI; 2.12 µM (inactive) in the assay with NCI-H460; 17.4 µM (inactive) with OVCAR-4; 11.3 µM (inactive) in the assay with SN12C; 16.9 µM (inactive) with SNB-19. The GI50 in the assay with SR is 18.9 µM (inactive); in the assay with TK-10 it was 17.7 µM (inactive); in the assay on UACC-257 it was 20.7 µM (inactive).
Consider `CC(=O)/C(=C\c1ccco1)C(=O)Nc1ccccc1`, for which the GI50 with 786-0, with CCRF-CEM, with DLD-1, in the assay on HCT-116, with HL-60 and with HOP-62 was > 100 µM (inactive) throughout. Besides, the GI50 in the assay with HT-29, with LOX IMVI, with NCI-H460, in the assay with OVCAR-4, in the assay with SN12C and in the assay with SNB-19 was > 100 µM (inactive) throughout. The GI50 in the assay on SR, with TK-10 and in the assay on UACC-257 was > 100 µM (inactive) in each case.
Consider `NNC(=O)C1CCC(=O)N1S(=O)(=O)c1ccccc1` (stereo unspecified), for which the GI50 in the assay on 786-0, with CCRF-CEM, in the assay on DLD-1, with HCT-116, in the assay on HL-60 and with HOP-62 was > 100 µM (inactive) throughout. The GI50 in the assay with HT-29, with LOX IMVI, in the assay on NCI-H460, in the assay on OVCAR-4, in the assay on SN12C and in the assay with SNB-19 was > 100 µM (inactive) each time. In addition, the GI50 with SR, with TK-10 and in the assay with UACC-257 was > 100 µM (inactive) throughout.
For `O=C1C=C2S[C@H]3C[C@]2(C=C1Br)C1=C(N3)C(=O)c2[nH]cc3c2C1=NCC3` [(+)-DISCORHABDIN B], the GI50 in the assay with 786-0 was 0.883 µM (active); with CCRF-CEM, 0.234 µM (active); with DLD-1 it was 0.617 µM (active); with HCT-116, 0.103 µM (active); in the assay on HL-60, 0.0853 µM (active); in the assay with HT-29, 0.344 µM (active). Also, the GI50 was 1.5 µM (inactive) in the assay on Hs-578T; 0.347 µM (active) in the assay with LOX IMVI; 0.305 µM (active) in the assay on MDA-MB-231; 0.165 µM (active) with MDA-N; 3.05 µM (inactive) in the assay with NCI-H460; 0.205 µM (active) in the assay with NCI/ADR-RES. For the same compound, the GI50 was 0.218 µM (active) with OVCAR-4; 1.83 µM (inactive) with PC-3; 1.23 µM (inactive) in the assay with SN12C; 12.4 µM (inactive) in the assay with SNB-19; 2.69 µM (inactive) with SR; 1.4 µM (inactive) in the assay with TK-10. In the assay with UACC-257, the GI50 was 0.213 µM (active).
For `CO[C@@H]1C=C[C@@]23c4cc5c(cc4CN(C[C@@H]2O)[C@H]3C1)OCO5` [(+)-HAEMANTHAMINE], the GI50 with 786-0 was 20.1 µM (inactive); in the assay with CCRF-CEM, 8.34 µM (inactive); in the assay on DLD-1 it was 15.3 µM (inactive); with HL-60, 14 µM (inactive); in the assay with HT-29, 10.4 µM (inactive); in the assay with LOX IMVI it was 6.38 µM (inactive). For the same compound, the GI50 is 15.7 µM (inactive) in the assay on NCI-H460; 3.85 µM (inactive) in the assay on OVCAR-4; 16.1 µM (inactive) in the assay with SN12C; 33.3 µM (inactive) in the assay on SNB-19; 15 µM (inactive) with SR; 30.8 µM (inactive) in the assay with TK-10. Moreover, in the assay on UACC-257, the GI50 was 22.6 µM (inactive).
Consider `C[C@H]1C[C@@H]2[C@H]([C@@H](O)C[C@@]3(C)[C@H]2CC[C@]3(O)C(=O)CO)[C@@]2(C)C=CC(=O)C=C12` [METHYLPREDNISOLONE], for which the GI50 is > 100 µM (inactive) in the assay on 786-0; 0.0429 µM (active) in the assay on CCRF-CEM; > 100 µM (inactive) in the assay on DLD-1; > 100 µM (inactive) in the assay with HCT-116; > 100 µM (inactive) in the assay on HL-60; > 100 µM (inactive) in the assay with HOP-62. The GI50 in the assay with HT-29 was > 100 µM (inactive); with LOX IMVI, > 100 µM (inactive); in the assay on NCI-H460 it was > 100 µM (inactive); in the assay on OVCAR-4, > 100 µM (inactive); with SN12C it was 46.6 µM (inactive); with SR, > 100 µM (inactive). The GI50 with TK-10 and in the assay with UACC-257 was > 100 µM (inactive) in each case.

(Values after ChEMBL document CHEMBL1201862, “PubChem BioAssay data set” (2004).)
